According to publication PMC10924921, “Mi-2β promotes immune evasion in melanoma by activating EZH2 methylation” (Nature Communications, 2024):

How the values were obtained:
Assay in all cases: biochemical
Parameters in all cases: KINOMEscan active-site competition binding panel (468 kinase assays), per cent of control at 1000 nM
Conditions in all cases: KINOMEscan per cent of control (binding competition); read-out: Percent Control
[1] = target: TTK (Homo sapiens, UniProt P33981)
Text: (§1) Figure S7 / Percent Control

[2] = target: TRPM6 (Homo sapiens, UniProt Q9BX84)
Text: as §1

[3] = target: T1, MLK1 (Homo sapiens, UniProt P80192)
T1 construct: gene MAP3K9
Text: as §1

[4] = target: FGFR4 (Homo sapiens, UniProt P22455)
Text: as §1

[5] = target: PIKFYVE (Homo sapiens, UniProt Q9Y2I7)
Text: as §1

[6] = target: PAK1 (Homo sapiens, UniProt Q13153)
Text: as §1

[7] = target: FES (Homo sapiens, UniProt P07332)
Text: as §1

[8] = target: KIT (Homo sapiens, UniProt P10721)
Text: as §1

[9] = target: GRK3 (Homo sapiens, UniProt P35626)
Text: as §1

[10] = target: TNNI3K (Homo sapiens, UniProt Q59H18)
Text: as §1

[11] = target: PIK3CA(M1043I) (Homo sapiens, UniProt P42336, M1043I)
Text: as §1

[12] = target: CDK3 (Homo sapiens, UniProt Q00526)
Text: as §1

[13] = target: RET(M918T) (Homo sapiens, UniProt P07949, M918T)
Text: as §1

[14] = target: HUNK (Homo sapiens, UniProt P57058)
Text: as §1

[15] = target: SRPK3 (Homo sapiens, UniProt Q9UPE1)
Text: as §1

[16] = target: DDR2 (Homo sapiens, UniProt Q16832)
Text: as §1

[17] = target: EIF2AK1 (Homo sapiens, UniProt Q9BQI3)
Text: as §1

[18] = target: T2, PRKR (Homo sapiens, UniProt P19525)
T2 construct: gene EIF2AK2
Text: as §1

[19] = target: EGFR(L747-E749del, A750P) (Homo sapiens, UniProt P00533, A750P/DEL747-749)
Text: as §1

[20] = target: T3, BIKE (Homo sapiens, UniProt Q9NSY1)
T3 construct: gene BMP2K
Text: as §1

[21] = target: MAP3K3 (Homo sapiens, UniProt Q99759)
Text: as §1

[22] = target: T4, YES (Homo sapiens, UniProt P07947)
T4 construct: gene YES1
Text: as §1

[23] = target: MARK4 (Homo sapiens, UniProt Q96L34)
Text: as §1

[24] = target: MARK2 (Homo sapiens, UniProt Q7KZI7)
Text: as §1

[25] = target: T5, ARK5 (Homo sapiens, UniProt O60285)
T5 construct: gene NUAK1
Text: as §1

T2 sequence (P19525 whole entry): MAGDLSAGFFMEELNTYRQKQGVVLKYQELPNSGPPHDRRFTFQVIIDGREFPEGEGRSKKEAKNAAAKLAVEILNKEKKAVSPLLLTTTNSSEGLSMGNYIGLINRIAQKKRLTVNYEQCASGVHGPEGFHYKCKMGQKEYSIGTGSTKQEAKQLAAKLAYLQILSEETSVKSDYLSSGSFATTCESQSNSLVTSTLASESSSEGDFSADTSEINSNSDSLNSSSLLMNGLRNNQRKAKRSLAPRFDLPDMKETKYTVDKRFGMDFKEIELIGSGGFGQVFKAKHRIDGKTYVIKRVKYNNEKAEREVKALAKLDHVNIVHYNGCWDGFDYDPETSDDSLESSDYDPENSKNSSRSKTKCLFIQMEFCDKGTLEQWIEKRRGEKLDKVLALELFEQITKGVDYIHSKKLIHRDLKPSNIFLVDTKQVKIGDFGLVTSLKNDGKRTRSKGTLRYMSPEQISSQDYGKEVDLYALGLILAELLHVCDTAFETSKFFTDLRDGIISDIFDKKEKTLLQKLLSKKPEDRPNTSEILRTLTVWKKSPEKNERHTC
TTK, sequence (P33981 whole entry): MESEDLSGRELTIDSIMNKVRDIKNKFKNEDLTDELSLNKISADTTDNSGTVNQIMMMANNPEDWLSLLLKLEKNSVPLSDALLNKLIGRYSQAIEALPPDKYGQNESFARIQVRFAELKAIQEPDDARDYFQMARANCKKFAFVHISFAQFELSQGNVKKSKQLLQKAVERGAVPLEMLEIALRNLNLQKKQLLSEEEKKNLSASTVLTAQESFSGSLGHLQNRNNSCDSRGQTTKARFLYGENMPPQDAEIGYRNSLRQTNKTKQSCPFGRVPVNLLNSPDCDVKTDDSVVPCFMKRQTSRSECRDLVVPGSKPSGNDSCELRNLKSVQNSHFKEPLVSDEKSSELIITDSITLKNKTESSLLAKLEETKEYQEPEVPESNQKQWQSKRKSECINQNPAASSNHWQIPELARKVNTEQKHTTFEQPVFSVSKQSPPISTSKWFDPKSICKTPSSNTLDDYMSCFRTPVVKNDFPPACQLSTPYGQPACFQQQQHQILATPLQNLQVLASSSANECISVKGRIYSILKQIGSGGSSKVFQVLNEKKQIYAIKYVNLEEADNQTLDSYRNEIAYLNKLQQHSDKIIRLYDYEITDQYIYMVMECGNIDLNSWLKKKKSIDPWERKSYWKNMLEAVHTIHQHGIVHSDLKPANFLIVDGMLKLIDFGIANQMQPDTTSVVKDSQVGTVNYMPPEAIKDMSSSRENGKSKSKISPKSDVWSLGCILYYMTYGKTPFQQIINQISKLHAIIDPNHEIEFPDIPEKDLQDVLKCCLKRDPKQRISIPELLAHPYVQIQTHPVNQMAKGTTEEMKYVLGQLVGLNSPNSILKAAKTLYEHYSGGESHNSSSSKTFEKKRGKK
TRPM6, sequence (Q9BX84 whole entry): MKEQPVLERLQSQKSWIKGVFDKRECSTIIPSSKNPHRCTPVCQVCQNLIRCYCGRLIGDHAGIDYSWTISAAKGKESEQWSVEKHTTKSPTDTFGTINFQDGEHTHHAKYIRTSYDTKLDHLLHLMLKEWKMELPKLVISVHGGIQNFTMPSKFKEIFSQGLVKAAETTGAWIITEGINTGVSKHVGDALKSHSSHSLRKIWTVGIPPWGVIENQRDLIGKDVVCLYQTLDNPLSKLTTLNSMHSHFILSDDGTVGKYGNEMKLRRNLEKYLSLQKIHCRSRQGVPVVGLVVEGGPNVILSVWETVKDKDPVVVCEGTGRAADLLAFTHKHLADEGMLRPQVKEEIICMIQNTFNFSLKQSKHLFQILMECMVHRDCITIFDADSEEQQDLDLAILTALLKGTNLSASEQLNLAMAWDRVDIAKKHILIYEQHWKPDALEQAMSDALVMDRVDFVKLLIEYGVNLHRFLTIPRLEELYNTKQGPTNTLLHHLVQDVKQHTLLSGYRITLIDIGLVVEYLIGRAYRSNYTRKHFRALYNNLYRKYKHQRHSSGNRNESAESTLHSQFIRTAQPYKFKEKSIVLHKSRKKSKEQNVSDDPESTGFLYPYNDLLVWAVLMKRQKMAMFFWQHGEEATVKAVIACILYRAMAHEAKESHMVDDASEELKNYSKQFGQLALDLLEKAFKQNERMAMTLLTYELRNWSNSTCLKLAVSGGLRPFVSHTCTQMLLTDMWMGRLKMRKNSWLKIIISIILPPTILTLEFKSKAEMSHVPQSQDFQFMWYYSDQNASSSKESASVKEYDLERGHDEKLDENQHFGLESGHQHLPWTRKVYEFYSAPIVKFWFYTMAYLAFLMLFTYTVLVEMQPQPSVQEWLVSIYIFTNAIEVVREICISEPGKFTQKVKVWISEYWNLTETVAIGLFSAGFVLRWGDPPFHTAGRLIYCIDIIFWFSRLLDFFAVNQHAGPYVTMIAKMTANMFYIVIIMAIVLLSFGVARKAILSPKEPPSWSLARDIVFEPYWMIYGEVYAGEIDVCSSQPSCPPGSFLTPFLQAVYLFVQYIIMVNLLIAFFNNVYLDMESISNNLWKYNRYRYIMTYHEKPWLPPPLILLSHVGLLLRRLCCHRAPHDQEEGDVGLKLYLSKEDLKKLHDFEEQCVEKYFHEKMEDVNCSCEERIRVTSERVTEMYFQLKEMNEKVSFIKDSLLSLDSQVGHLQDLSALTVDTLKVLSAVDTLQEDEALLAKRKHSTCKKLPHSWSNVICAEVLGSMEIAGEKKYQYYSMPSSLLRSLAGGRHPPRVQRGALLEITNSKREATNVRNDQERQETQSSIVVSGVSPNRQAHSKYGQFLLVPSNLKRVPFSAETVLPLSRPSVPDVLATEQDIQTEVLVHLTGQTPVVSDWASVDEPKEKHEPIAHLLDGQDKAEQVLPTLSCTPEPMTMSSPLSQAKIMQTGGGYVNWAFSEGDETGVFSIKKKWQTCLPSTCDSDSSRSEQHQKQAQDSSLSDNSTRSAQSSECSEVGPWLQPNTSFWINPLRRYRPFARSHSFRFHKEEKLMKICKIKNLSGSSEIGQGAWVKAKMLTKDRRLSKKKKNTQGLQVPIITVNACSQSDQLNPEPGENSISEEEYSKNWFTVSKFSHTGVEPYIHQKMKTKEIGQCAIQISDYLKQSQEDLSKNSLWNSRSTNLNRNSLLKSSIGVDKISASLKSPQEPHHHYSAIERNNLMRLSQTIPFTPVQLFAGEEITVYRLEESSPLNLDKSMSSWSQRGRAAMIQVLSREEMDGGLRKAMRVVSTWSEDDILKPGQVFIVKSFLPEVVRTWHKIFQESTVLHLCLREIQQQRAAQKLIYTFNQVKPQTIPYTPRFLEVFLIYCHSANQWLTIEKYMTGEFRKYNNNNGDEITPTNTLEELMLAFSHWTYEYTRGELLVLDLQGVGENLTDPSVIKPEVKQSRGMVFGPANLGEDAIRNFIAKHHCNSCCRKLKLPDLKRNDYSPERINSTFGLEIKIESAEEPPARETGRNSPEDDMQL
EGFR(L747-E749del, A750P), sequence (P00533 with tags, fused parts or gaps DEL747-749/A750P): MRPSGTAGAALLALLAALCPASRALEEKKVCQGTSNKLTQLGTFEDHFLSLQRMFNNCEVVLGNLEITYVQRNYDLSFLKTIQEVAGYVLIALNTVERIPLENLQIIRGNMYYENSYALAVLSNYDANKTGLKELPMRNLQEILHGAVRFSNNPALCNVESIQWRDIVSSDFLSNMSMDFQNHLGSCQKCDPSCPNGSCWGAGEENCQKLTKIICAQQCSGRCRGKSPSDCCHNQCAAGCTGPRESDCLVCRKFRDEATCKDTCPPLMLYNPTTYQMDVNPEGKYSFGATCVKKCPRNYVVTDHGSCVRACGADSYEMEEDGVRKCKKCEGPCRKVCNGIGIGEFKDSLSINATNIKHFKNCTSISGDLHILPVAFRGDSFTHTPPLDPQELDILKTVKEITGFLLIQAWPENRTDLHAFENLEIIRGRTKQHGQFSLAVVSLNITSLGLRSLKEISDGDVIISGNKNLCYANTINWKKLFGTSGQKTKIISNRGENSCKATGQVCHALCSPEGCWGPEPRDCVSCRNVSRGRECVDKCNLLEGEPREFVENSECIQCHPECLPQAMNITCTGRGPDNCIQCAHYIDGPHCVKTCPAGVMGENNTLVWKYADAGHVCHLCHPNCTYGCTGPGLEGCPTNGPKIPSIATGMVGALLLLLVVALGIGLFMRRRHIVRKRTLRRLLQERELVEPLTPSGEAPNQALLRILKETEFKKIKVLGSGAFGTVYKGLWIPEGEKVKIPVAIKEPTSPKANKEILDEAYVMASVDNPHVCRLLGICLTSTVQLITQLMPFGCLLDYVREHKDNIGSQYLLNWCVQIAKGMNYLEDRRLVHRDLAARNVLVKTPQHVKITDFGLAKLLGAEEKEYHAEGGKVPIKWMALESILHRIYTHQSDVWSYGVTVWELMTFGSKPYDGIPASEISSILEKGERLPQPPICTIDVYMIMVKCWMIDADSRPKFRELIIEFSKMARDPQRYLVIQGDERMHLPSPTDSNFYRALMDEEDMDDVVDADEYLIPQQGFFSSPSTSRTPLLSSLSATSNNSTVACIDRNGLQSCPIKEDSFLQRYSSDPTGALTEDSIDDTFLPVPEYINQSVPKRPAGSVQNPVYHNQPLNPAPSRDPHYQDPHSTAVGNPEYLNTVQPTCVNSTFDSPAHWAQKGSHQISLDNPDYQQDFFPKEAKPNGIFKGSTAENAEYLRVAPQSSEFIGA
CDK3, sequence (Q00526 whole entry): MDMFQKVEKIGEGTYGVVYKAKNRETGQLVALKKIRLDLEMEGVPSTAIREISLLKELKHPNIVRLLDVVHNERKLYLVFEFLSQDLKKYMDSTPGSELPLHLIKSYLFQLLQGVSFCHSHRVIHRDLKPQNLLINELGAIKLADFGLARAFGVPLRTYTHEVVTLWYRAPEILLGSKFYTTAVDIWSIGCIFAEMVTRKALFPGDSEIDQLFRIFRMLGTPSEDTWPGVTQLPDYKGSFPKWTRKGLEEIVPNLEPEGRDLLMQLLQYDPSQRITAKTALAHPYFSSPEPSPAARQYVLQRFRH

Structure (SMILES): Cn1c(=O)[nH]c2ccc(-c3cccc(C(=O)NC4CCn5ccnc5C4)c3)cc21 (stereo not shown) [Z36-MP5]
- remaining binding at 1 µM [1]: 91%
- remaining binding at 1 µM [2]: 90%
- remaining binding at 1 µM [3]: 98%
- remaining binding at 1 µM [4]: 76%
- remaining binding at 1 µM [5]: 96%
- remaining binding at 1 µM [6]: 87%
- remaining binding at 1 µM [7]: 73%
- remaining binding at 1 µM [8]: 95%
- remaining binding at 1 µM [9]: 53%
- remaining binding at 1 µM [10]: 96%
- remaining binding at 1 µM [11]: 83%
- remaining binding at 1 µM [12]: 43%
- remaining binding at 1 µM [13]: 90%
- remaining binding at 1 µM [14]: 74%
- remaining binding at 1 µM [15]: 51%
- remaining binding at 1 µM [16]: 66%
- remaining binding at 1 µM [17]: 73%
- remaining binding at 1 µM [18]: 99%
- remaining binding at 1 µM [19]: 90%
- remaining binding at 1 µM [20]: 100%
- remaining binding at 1 µM [21]: 55%
- remaining binding at 1 µM [22]: 99%
- remaining binding at 1 µM [23]: 95%
- remaining binding at 1 µM [24]: 100%
- remaining binding at 1 µM [25]: 98%
